Common to all, as to assay: growth of human tumour cells (NCI), 48 h
Assay [1] concerns NCI-H226 lung.
Assay [2] deals with MDA-MB-231 breast.
Assay [3] deals with EKVX NSCLC.
For assay [4], the system named is HT29 colon.
The test system of assay [5] is LOX IMVI melanoma.
Assay [6] concerns T-47D breast.
Assay [7] deals with CCRF-CEM leukemia.
Assay [8] relates to COLO 205 colon.
Assay [9] has as its system RXF 393 renal.
The test system of assay [10] is SK-OV-3 ovarian.

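Dose response: 5 concentrations. Exposure: 48 h. Format: 96-well plates. Endpoint: linear interpolation; highest concentration if not reached. TGI denotes the concentration required for complete inhibition of growth.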

For 31 molecules, TGI results are on record in PubChem BioAssay (NCI).

With `O=C(COc1cc(=O)oc2ccccc12)c1ccccc1`, the TGI is 49 µM in [1]; above 100 µM in [2]; above 100 µM in assay [3]; 45.7 µM in assay [4]; above 100 µM in assay [5]; above 100 µM in [6]. The TGI in [7] was above 100 µM.
As to `Cc1nc2c(Cl)cc(Cl)cc2c2c1CCO2`, the TGI in [1], in [2], in [3], in assay [4], in [8] and in assay [9] was above 100 µM each time. The TGI in assay [5], in [6] and in assay [7] was above 100 µM throughout.
Consider `N=c1oc2ccc3ccccc3c2cc1-c1nc2ccccc2c(=O)[nH]1`, for which the TGI is above 100 µM in assay [1]; 73.4 µM in [2]; above 100 µM in assay [3]; above 100 µM in [10]; 39.5 µM in assay [4]; above 100 µM in assay [8]. Besides, the values for the TGI in assay [9], in assay [5] and in assay [6] were 56.7 µM, above 100 µM and above 100 µM, respectively.
Regarding `CCC1c2[nH]c3ccccc3c2C[C@H]2C(=O)NC(C)C(=O)N12` (stereo partly drawn), the TGI in [1], in [2], in assay [3], in [10], in [4] and in [8] was above 100 µM each time. For the same molecule, the TGI in assay [9], in [5] and in assay [6] was above 100 µM in each case.
On to `COc1cc(/C=C/C(=O)CC(=O)/C=C/c2cc(C)c(O)c(OC)c2)cc(C)c1O`, for which the TGI in assay [1], in assay [2], in assay [3], in assay [10], in assay [4] and in assay [8] was above 100 µM in each case. Further, the TGI in assay [5], in assay [6] and in assay [7] was above 100 µM in each case.
As for `O=[N+]([O-])c1ccc2c(c1)nc1n2C(c2c(F)cccc2F)SC1` (stereo not drawn), the TGI in assay [2], in assay [3], in [10], in assay [4], in [8] and in [9] was above 100 µM each time. The TGI in assay [5], in assay [6] and in assay [7] was above 100 µM in each case.
Take `CN1C/C(=C\c2cccs2)C2=NN(c3ccccc3)C(c3cccs3)C2C1` (stereo not drawn): the TGI was above 100 µM in assay [1]; 98.7 µM in assay [2]; above 100 µM in [3]; above 100 µM in assay [10]; 22.4 µM in [4]; above 100 µM in [8]. Moreover, the TGI was above 100 µM in [5], 96.3 µM in [6] and 5.95 µM in assay [7].
Consider `Nc1cc(OCC2CCCCC2)nc(N)n1`, for which the TGI in assay [1], in [2], in assay [3], in assay [10], in [4] and in [8] was above 100 µM in each case. For the same molecule, the TGI in [9], in assay [5] and in assay [7] was above 100 µM in each case.
For the molecule `COc1ccc(-c2c(C#N)c(N)[nH]c(=S)c2C#N)cc1`, the TGI in assay [1] is above 100 µM; in assay [2], above 100 µM; in [3], above 100 µM; in [4] it was above 100 µM; in assay [8], above 100 µM; in assay [9], 98.3 µM. Moreover, the TGI in assay [5] is above 100 µM.
On to `CCC(C)C(Nc1c2ccccc2nc2c(C(=O)NCCN(C)C)cccc12)C(=O)O` (stereo not drawn), for which the TGI in assay [1] was 32.1 µM; in [2] it was 65.5 µM; in [3] it was 77 µM; in [10] it was above 100 µM; in assay [4], 17.1 µM; in assay [8], above 100 µM. Further, the TGI in assay [5] and in assay [7] was above 100 µM in each case.
With `COc1cc(/C=C/c2ccc(OC)c(OC)c2)oc(=O)c1`, the TGI in assay [1] was above 250 µM; in [3], above 116 µM; in assay [10], above 250 µM; in assay [4], above 250 µM; in assay [8], above 250 µM; in assay [9] it was above 216 µM. Further, the TGI in assay [5] and in [7] was above 250 µM in each case.
With `COC(=O)c1ccc(OCCn2nnc(C(=O)NN)c2C(=O)NN)cc1`, the TGI in assay [2], in assay [3], in assay [4], in assay [8], in assay [5] and in assay [7] was above 100 µM throughout.
On to `CC(=O)OCC1OC(n2c(C)c(C)cc(C#N)c2=S)C(OC(C)=O)C(OC(C)=O)C1OC(C)=O` (stereo not drawn), for which the TGI in [1], in assay [2], in [3], in [4], in assay [9] and in assay [5] was above 100 µM throughout. Besides, in [6], the TGI is above 100 µM.
As to `CCC1(CC)C(=O)NC(=O)NC1=S`, the TGI in assay [1], in assay [3], in assay [10], in [4], in assay [8] and in assay [9] was above 100 µM each time. Moreover, the TGI in [5] and in assay [7] was above 100 µM throughout.
Regarding `CCC1(O)C(=O)OCc2c1cc1n(c2=O)Cc2cc3cc4c(cc3nc2-1)OCO4` (stereo not drawn), the TGI is 0.0252 µM in [1]; 4.27 µM in assay [3]; 1.81 µM in [10]; 19.9 µM in assay [4]; 1.79 µM in assay [8]; 0.0578 µM in assay [9]. The TGI is 0.0688 µM in assay [5] and above 100 µM in assay [6].
In the case of `COc1ccc(-c2cc(-c3ccc(C)cc3)n(C3OC(COC(C)=O)C(OC(C)=O)C(OC(C)=O)C3OC(C)=O)c(=S)c2C#N)cc1` (stereo not drawn), the TGI in assay [1], in assay [2], in assay [3], in assay [10], in assay [4] and in [8] was above 100 µM throughout. Further, the TGI in [9], in assay [5] and in assay [6] was above 100 µM throughout.
With `CC1[C@@]2(O[C@@H]3C=C4C5CCC6Cc7nc8c(nc7C[C@@]6(C)C5C[C@H](O)[C@@]4(C)[C@]13O)CC1CCc3c(cc4c5c3C(O)C[C@H]5[C@@H](C)C3(O4)OC(C)(C)CC3O)[C@]1(C)C8)O[C@@](C)(CO)C[C@@H]2O` (stereo partly drawn), the TGI in assay [1] is 2.35 µM; in assay [3], above 3.72 µM; in [10], 0.976 µM; in assay [4], 1.65 µM; in assay [8] it was 1.07 µM; in [9], 0.153 µM. Further, the TGI in [5] and in assay [7] was above 3.72 µM throughout.
Regarding `Cc1cccc2c(=O)c3cccc([C@H](C)C(=O)O)c3oc12`, the TGI in assay [1], in assay [2], in assay [3], in [10], in assay [4] and in assay [8] was above 100 µM each time. Also, the TGI in [5], in [6] and in assay [7] was above 100 µM each time.
As to `COc1ccc(N2C(=O)C3ON(Cc4ccc(CC(N)=O)cc4)C(c4c5ccccc5c(C)c5ccccc45)C3C2=O)cc1` (stereo not drawn), the TGI was above 100 µM in assay [2]; 54.9 µM in assay [3]; above 100 µM in [10]; 35 µM in [4]; 48.8 µM in [9]; above 100 µM in [5]. In addition, the TGI in assay [6] was 80.1 µM; in assay [7], above 100 µM.
Regarding `COC(=O)[C@@]12CSC[C@]1(C(=O)OC)N[C@@H](c1ccccc1O)C2`, the TGI in [1], in assay [3], in assay [10], in assay [4], in assay [8] and in assay [9] was above 100 µM each time. Besides, the TGI in [6] and in assay [7] was above 100 µM throughout.
Take `CC(O)C(CO)NC(=O)C1CSSCC(NC(=O)C(N)Cc2ccccc2)C(=O)NC(Cc2ccccc2)C(=O)NC(Cc2c[nH]c3ccccc23)C(=O)NC(CCCCN)C(=O)NC(C(C)O)C(=O)N1` (stereo not drawn): the TGI in assay [1], in [2], in assay [3], in assay [4], in [8] and in [9] was above 100 µM each time. The TGI in assay [5], in [6] and in [7] was above 100 µM each time.
For `COc1ccc(C2CC(c3sc(Nc4ccc(C)cc4)nc3C)=NN2)cc1` (stereo not drawn), the TGI in assay [1] is 33.5 µM; in [3], 47.8 µM; in assay [10], 44.1 µM; in [4], 25.6 µM; in assay [8], 26.9 µM; in assay [9], 27.1 µM. Further, the TGI turned out to be 34.4 µM in [5] and 54.7 µM in assay [7].
As for `O=c1cc(NNc2ccccc2)[nH]c(=O)[nH]1`, the TGI in assay [1] is 36 µM; in assay [2] it was 29.3 µM; in [3], above 100 µM; in assay [10] it was above 100 µM; in [4] it was 39 µM; in [8], 31.8 µM. Besides, the TGI in assay [5] is 42.7 µM; in assay [7], above 100 µM.
With `CN(C)CCNC(=O)c1cccc2c1C(=O)c1ccccc1C2=O`, the TGI in assay [1] is above 100 µM; in [3] it was above 100 µM; in [10] it was above 100 µM; in assay [4], above 86.6 µM; in assay [8], 34.2 µM; in assay [9] it was above 100 µM. For the same molecule, the TGI was above 75.1 µM in assay [5] and 98.9 µM in [7].
Consider `Nc1nnc(N)n1N`, for which the TGI in [1], in [3], in [10], in [4], in [8] and in [9] was above 100 µM each time. Further, the TGI in [5] and in assay [7] was above 100 µM in each case.
For `CC(C)CC1c2[nH]c3ccccc3c2C[C@H]2C(=O)NC(Cc3c[nH]c4ccccc34)C(=O)N12` (stereo partly drawn), the TGI in assay [1] amounted to 50 µM; in assay [2], 49.9 µM; in assay [3], 45.4 µM; in [10] it was 49 µM; in [4], 31.2 µM; in assay [8], 34.8 µM. Besides, the TGI in assay [9] came out at 22.5 µM; in assay [5], 31.1 µM; in assay [6], 42.5 µM.
As for `C/C(Cc1ccc2c(c1)OCO2)=N\N=c1\sc2ccccc2n1C`, the TGI in assay [1], in assay [2], in assay [3], in [4], in assay [8] and in [9] was above 100 µM throughout. Besides, the TGI in assay [5], in assay [6] and in assay [7] was above 100 µM each time.
`O=C1C=C(NCCc2ccc(O)c([N+](=O)[O-])c2)C(=O)c2[nH]cnc21`: the TGI in assay [2] was above 100 µM; in assay [3] it was 72.2 µM; in assay [4], above 100 µM; in assay [8], above 100 µM; in assay [5] it was above 100 µM; in [6], 40.7 µM.
For `O=[N+]([O-])c1ccc(C[P+]2(c3ccccc3)CCCCC2)cc1` (tested in a mixture with another compound), the TGI in assay [3], in assay [10], in assay [8], in [9], in assay [5] and in assay [7] was above 100 µM throughout.
For `O=C1CCCC2=C1CC1=C(CCCC1=O)N2c1ccc(Cl)cc1`, the TGI in [1], in assay [2], in assay [3], in assay [10], in assay [4] and in [8] was above 100 µM throughout. Further, the TGI in [9], in [5] and in assay [7] was above 100 µM each time.
As for `O=C(Cn1c2ccc(Br)cc2c2nc3ccccc3nc21)NCc1ccccc1`, the TGI is above 100 µM in assay [1]; above 100 µM in [2]; above 100 µM in [10]; above 100 µM in assay [4]; above 100 µM in [8]; 26.9 µM in assay [9]. Also, the TGI in [5] was above 100 µM; in assay [6] it was 18.6 µM; in [7], above 100 µM.
